Patent publication US20090258836A1, “EFFECTIVE DELIVERY OF CROSS-SPECIES A3 ADENOSINE-RECEPTOR ANTAGONISTS TO REDUCE INTRAOCULAR PRESSURE” (The Trustees of The University of Pennsylvania, priority 2006, published 2009)
Entries after “also recorded” stand apart in the source; their conditions may differ.

Legend:
cultured human NPE cells = conditions: cited from earlier work
mouse IOP [1] = assay: Mouse IOP after topical application, invasive servo-null micropipette system (SNMS); type: in vivo, Black Swiss mice
Experimental: (§1) The test animals were black Swiss outbred mice of mixed sex, 7-9 weeks old and 25-30 g in weight, obtained from Taconic Inc. (Germantown, N.Y.), and maintained under 12:12-h light/dark illumination cycle and allowed unrestricted access to food and water. Mice were anesthetized with intraperitoneal ketamine ([…]) supplemented by topical proparacaine HCl 0.5% (Allergan, Bausch & Lomb) for the IOP measurements. IOP was measured invasively (SNMS) and non-invasively by pneumotonometry in separate animals.
By the SNMS approach (Avila et al., supra, 2001), the exploring micropipette, of […] outer diameter, was filled with a highly conducting solution and advanced across the cornea into the anterior chamber. A refined technique by Wang et al., Invest. Opthalmol. Vis. Sci. (serial online) (Aug. 31, 2006) available at www.iovs.org/egi/letters/46/9/3274#422, enhanced stability and reduce the background noise of the records, permitting fabrication of micropipettes whose resistance is 0.1-0.3 MΩ, rather than the 0.25-0.4 MΩ used initially. The filling solution was reduced from 3M KCl to 2M NaCl, rather than 3 M KCl. The resistance of the filled micropipette was balanced in a bridge circuit, and the tip was then advanced across the cornea. Upon entering the anterior chamber of the eye, the IOP forces the much lower-conducting aqueous humor into the micropipette tip, displacing the original filling solution. The micropipette resistance was thereby increased, unbalancing the bridge circuit and triggering a bellows to provide a counter-pressure, restoring the position of the filling solution and returning the resistance to its initial value. Thus, the value of the counter-pressure equals the IOP. As in the past (Avila et al., supra, 2001), the stability of the records permitted continuous measurements for tens of minutes during the course of drug applications.
(§2) Ketamine HCl was purchased from Phoenix Pharmaceutical Inc. (St. Joseph, Mo.). Other drugs were obtained from Sigma Chemical (St. Louis, Mo.). Drugs were applied topically with an Eppendorf pipette. […] The final droplet solution contained the drugs at the stated concentrations together with <2% DMSO and 0.0005% benzalkonium chloride at an osmolality of 295-300 mOsm. DMSO was omitted, altogether, from droplets containing the hydrophilic compounds adenosine, carbachol and carboxyfluorescein.
(§3) Effects on invasively-measured IOP were measured 10 min after topical application because after this time, the continued presence of the micropipette can be associated with a downward drift of the IOP, even under control conditions. In contrast, smaller droplets ([…]) were applied to the eye more frequently (three times instead of once) with the non-invasive technique, in order to forestall drying of the eye associated with the airflow from the pneumotonometer. With the non-invasive protocol, the IOP was stable for 30 min under control conditions.
In Table 1, an endpoint of 10 minutes was used for the invasive measurements in light of the above-discussed downward drift of the IOP, even under control conditions. Also the need for smaller, more frequent droplets are discussed above with regard to the non-invasive technique using the pneumotonometer. As above, with the non-invasive protocol, the IOP was stable for 30 minutes under control conditions.

mouse IOP [2] = assay: Mouse IOP after topical application, non-invasive pneumotonometry; type: in vivo, Black Swiss mice
Experimental: as §1
By comparison, IOP was measured non-invasively by pneumotonometry (OBT) (Avila et al., supra, 2005). As previously described, the commercially available tip of the ocular blood tomography (OBT) pneumotonometer (Blood Flow Analyzer [BFA] probe tip; Paradigm Medical Industries Inc.) was fit to a custom-built mount. Air flow from a constant pressure source was passed through the mount to reach a diaphragm forming the end of the BFA tip. The flow of air displaces the diaphragm outward, permitting escape of the air through holes in the wall of the probe tip into the atmosphere. Pressure was monitored with a transducer connected through a T-connection to the base of the BFA tip. The probe assembly was advanced to the cornea with a three-axis micromanipulator. The probe tip was advanced sufficiently to make contact with the tear film, as was indicated by a shift in the baseline output reading. In a refined method, the tip was withdrawn until the […] was visually displaced from the tear film. The output was then adjusted to zero before advancing the tip again. Contact with the cornea depresses the diaphragm of the BFA tip, occluding access of the air flow to the escape holes and raising the pressure at the base of the tip.
This approach was simplified to expedite identification of the endpoint, and the probe was subsequently advanced in about 10 standardized steps of approximately […] at intervals of about 10 seconds to identify the inflection region (Wang et al., supra, 2006). […] The pneumotonometric estimates of IOP were previously found to agree with manometric measurements in cannulated preparations and with estimates obtained by the servo-null technique (Avila et al., supra, 2005). Having established the baseline value of IOP, the position along the axis of advance of the micromanipulator was noted, and the probe was retracted from contact with the cornea. Subsequent measurements of IOP at later time points were obtained by advancing the probe tip to the same position, with the placement of the mouse maintained stereotactically. The measurements were conducted at 10-min intervals to avoid potential artifacts associated with prolonged pressure on the cornea.
as §2, §3
In Table 1, an endpoint of 10 minutes was used for the invasive measurements in light of the above-discussed downward drift of the IOP, even under control conditions. […]

[3] = test system: HCE (human ciliary epithelial) cell line, NPE cells; conditions: Civan et al.; read-out: EC50 of isosmotic shrinkage of cultured human NPE cells; cited from earlier work
[4] = test system: intact rabbit ciliary epithelium; assay: Short-circuit current across intact rabbit ciliary epithelium (iris-ciliary body); conditions: 30 μM IB-MECA, 5 mM Ba2+, solvent-corrected
Experimental: As an initial step in data analysis, 20-min period of baseline current just before addition of any agent was fit by linear least-squares analysis. The line generated by that analysis was extrapolated to a point 45 min beyond introduction of that agent. Each current response was subtracted from its respective extrapolated baseline to yield a common initial baseline approximating constant zero current. All recordings were placed in register relative to time of agent introduction (time 0). Records of control (solvent), IB-MECA with solvent, and B-MECA corrected for solvent were separately averaged. […]
Transepithelial Measurements: In animal experiments, preferably rabbits, after anesthetization and sacrifice (Carre et al., J. Membr. Biol. 146:293-305 (1995), the iris-ciliary body (1-CB) was enucleated and isolated as described by Carre et al., 1995. In one experiment, the pupil and central iris were occluded with a Lucite disc, and the iris-ciliary body was mounted between the two halves of a Lucite chamber. The annulus of exposed tissue provided a projected surface area of 0.93 cm^2. Preparations were continuously bubbled with 95%O2-5% CO2 for maintenance of pH 7.4 in a Ringer's solution comprising (in mM): 110.0 NaCl, 10.0 HEPES (acid), 5.0 HEPES (Na^+), 30.0 NaHCO3, 2.5 CaCl2, 1.2 MgCl2, 5.9 KCl, and 10.0 glucose, at an osmolality of 305 mOsm. […]

[5] = test system: HCE (human ciliary epithelial) cell line, NPE cells; assay: Cell volume in isosmotic solution (isosmotic shrinkage), Coulter Counter; type: cell-based
Experimental: Cell Culture The HCE (human ciliary epithelial) cell line (Carre et al., supra, 1997) is an immortalized NPE cell line obtained from primary cultures of adult human epithelium. […] Eye Res. 57:3057-3063 (1993); Yantorno et al., Exp. Eye Res. 49:423-437 (1989)). […] Cells were passaged every 6-7 days and were studied 8-13 days after passage, after reaching confluence. An immortalized PE-cell line from a primary culture of bovine pigmented ciliary epithelium were also grown under matching conditions. Measurement of Cell Volume in Isosmotic Solution: The volume of PE and NPE cells was measured, since the movement of fluid underlies a change in PE and NPE cell volume, respectively. This is also thought to be the same as the movement of fluid which underlines the secretion of aqueous humor (FIG. 1). […] Parallel aliquots of cells were studied on the same day. One aliquot usually served as a control, and the others were exposed to different experimental conditions at the time of suspension. The same amount of solvent vehicle (dimethylformamide, DMSO or ethanol) was always added to the control and experimental aliquots. […] Cell volumes of isosmotic suspensions were measured with a Coulter Counter (model ZBI-Channelyzer II), using a 100 μm aperture (Civan et al., supra, 1994). As previously described (Wax et al., supra, 1993), the cell volume (vC) of the suspension was taken as the peak of the distribution function. Cell shrinkage was fit as a function of time (t) to a monoexpenential function: […]^0^)/τ] {1) where v∞ is the steady-state cell volume, v0 is the cell volume at the first point (t0) of the time course to be fit, and τ is the time constant of the shrinkage. For purposes of data reduction, the data were normalized to the first time point, taken to be 100% isotonic volume. Fits were obtained by nonlinear least-squares regression analysis, permitting both v∞ and τ to be variables. […] Med. Chem. 37:636-646 (1994; Jacobson et al., supra, 1995; Jacobson et al., FEBS Lett. 336:57-60 (1993)).

mouse IOP [6] = assay: Mouse IOP monitored with SNMS, protocols of Yang et al. 2005; type: in vivo
Experimental: Pharmacol. 65:1675-1684 (2003)), is effective both in blocking adenosine-triggered shrinkage of cultured human NPE cells and in lowering IOP of mice (Yang et al., supra, 2005). MRS-1292 was tested on the mouse for two reasons. Transgenic mice provide a convenient opportunity for studying the molecular physiology and pharmacology in the living animal ([…] al., supra, 2003). Second, measurement of IOP permitted us to assess the effects of MRS-1292 on the target parameter. […] Therefore, to directly assess the effect of MRS-1292 in vivo in the mouse, IOP was monitored before and after drug application. IOP was monitored with the Servo-Null-Micropipette System (SNMS). The test protocols are described in detail by Yang et al. supra, 2005, herein incorporated by reference. […] In comparison, addition of the same volume of saline at the same osmolality produced no significant change in IOP (-0.3±1.2 mmHg, n=6, p>0.8) 14 min later. […] To estimate an approximate range, “penetrance” was defined by Yang et al. as the ratio of the published Ki value at receptors in vitro to the minimally effective droplet concentration, for a number of adenosine agonists and antagonists. Thus, penetrance ranges from 1:100 to 1:1000 for purinergic drugs that have been tested in the mouse, and it is not very different from the drug penetrance of 1:100 for agents applied topically to rabbits and primates. This rule of thumb also applies to acylguanidine blockers and bumetanide, whose topical effects have also been studied in the mouse eye. Thus, the approximately 1:1000 penetrance that Yang et al. reported in the 2003 citation for MRS 1292 in the present experiments is consistent with past studies

Structure (SMILES): Nc1ncnc2c1ncn2[C@@H]1O[C@H](CO)[C@@H](O)[C@H]1O [Adenosine, adenosine]
- time constant (τ) of the adenosine-triggered shrinkage (cultured human NPE cells; 10 μM adenosine without antagonist): 3.8 ± 0.6 min
- degree of shrinkage relative to control (cultured human NPE cells; 10 μM): increased the degree of shrinkage several-fold
- increase in IOP over baseline (mouse IOP [1]; SNMS, after 10 min, adenosine 10 mM, Cl-IB-MECA 200 nM droplet): 24.0±4.7 mmHg
- Δ(IOP) Servo-Null (mouse IOP [1]; topical droplet 10 mM, endpoint 10 min): +22.4 ± 6.5 mm Hg
- delay of the increase in IOP when measured non-invasively (mouse IOP [2]; topical): about 10 minutes
- Δ(IOP) Pneumotonometer (mouse IOP [2]; topical droplets 10 mM, 30 min): +4.8 ± 1.7 mm Hg
- EC50 [3]: 3000 to 10000 nM

Structure (SMILES): CNC(=O)[C@H]1O[C@@H](n2cnc3c(NCc4cccc(I)c4)ncnc32)[C@H](O)[C@@H]1O [IB-MECA, N^6-(3-iodobenzyl)-adenosine-5′-N-methyluronamide]
- effect on short-circuit current [4]: increased the short circuit current; also recorded: produced a significant increase in the short-circuit current
- τ time constant of the shrinkage ([5]; 100 nM): 4.5 ± 0.6 min
- v∞ steady-state cell volume ([5]; 100 nM, normalized to first time point as 100% isotonic volume): 95.6±0.2%
- effect of agonist on isosmotic volume of NPE cells ([5]; agonist 100 nM): produced prompt shrinkage
- Kd ([5]; in the presence of gramicidin, read-out: apparent Kd for the IB-MECA-induced shrinkage): 55 nM
- increase in IOP (mouse IOP [6]; 140 nM): 4.6±1.6 mmHg
- increase in IOP (mouse IOP [6]; 10-fold lower concentration than 140 nM): 2.2±0.5 mm Hg
- change in IOP (mouse IOP [6]; droplet concentration 1400 nM): −1.2±1.9 mmHg
